Experimental data reported in a melting point compilation (Tetko et al.).

melting point | Compound
105 to 107 °C | Cc1ccc2ncc(C=O)n2c1
147 to 149 °C | COCCN(CCOC)S(=O)(=O)c1ccc(C(=O)O)cc1
159 to 161 °C | COCCc1ccc2oc(N)nc2c1
101 to 103 °C | COc1ccc(COc2ccc(C#N)cn2)cc1
95 to 101 °C | CCN(CC)S(=O)(=O)c1cccc(-c2nnc(S)o2)c1
53 to 55 °C | CCS(=O)(=O)CCn1ccc(N)n1
139 to 141 °C | O=C(O)CCC(=O)c1csc2ccccc12
186 to 188 °C | CC(C)c1ccc(-c2nnn[nH]2)cc1
139 to 141 °C | Cc1cccc(Cl)c1NC(=O)CBr
99 to 101 °C | COC(=O)C(C)Nc1ccc([N+](=O)[O-])cc1 (configuration not stated)
148 to 150 °C | CC(C)NS(=O)(=O)Cc1ccc(CN)cc1
221 to 224 °C | O=C(O)c1ccc(Cl)c(S(=O)(=O)NC2CC2)c1
179 to 181 °C | O=S(=O)(Cl)c1ccc(-n2cnnn2)cc1
118 to 120 °C | COc1ccc(C(NC(=O)CCl)c2ccc(OC)cc2)cc1
173 to 175 °C | CS(=O)(=O)c1ccc(C(=O)O)o1
101 to 103 °C | COc1ccc(/C=N/OCC(=O)O)cc1
96 to 98 °C | CC(NC(=O)CCC(=O)O)C(=O)c1ccccc1 (configuration not stated)
102 to 104 °C | Cc1cc(C(=O)CCl)c(C)n1-c1ccc(C(C)(C)C)cc1
99 to 101 °C | CCN(CC)S(=O)(=O)c1ccc(Cl)c(S(=O)(=O)Cl)c1
188 to 190 °C | NC(=O)c1ccc(S(=O)(=O)Cl)cc1
76 to 78 °C | CC(C)(C)c1ccc(CC(=O)O)cc1
328 to 330 °C | O=[N+]([O-])c1ccc(Cl)c(S(=O)(=O)Nc2nc3ccc(Cl)cc3s2)c1
185 to 187 °C | CN(C)S(=O)(=O)c1ccc(C(=O)O)cc1Br
109 to 111 °C | C=CCN(c1ccc(OC)cc1)S(=O)(=O)c1ccc(Cl)c(C(=O)O)c1
81 to 83 °C | O=C(OCc1ccccc1)N1CCCC(CS(=O)(=O)Cl)C1 (configuration not stated)
90 to 92 °C | CNc1ccc([N+](=O)[O-])c(C)c1
30 to 32 °C | CCC(=O)c1ccccc1OC(F)F
108 to 110 °C | O=C(O)CCCNC(=O)c1ccc(Cl)cc1
85 to 87 °C | CNC(=O)Cc1ccccc1N

Further lines, the compound ahead of its results:

Compound | melting point
Cc1nn2cnnc2[nH]c1=O | 195 to 197 °C
CN(C)C(=O)Cn1cnc(N)n1 | 135 to 137 °C
O=C(O)CN1C(=O)NC2(CCCC2)C1=O | 165 to 167 °C
CC(O)c1ccc2c(c1)NC(=O)CO2 (configuration not stated) | 137 to 139 °C
CNCc1cc(Br)ccc1[N+](=O)[O-] | 29 to 31 °C
O=C(c1ccc(O)cc1)c1ccc(F)cc1 | 170 to 172 °C
CC1(C)CCc2c(sc(N)c2C(N)=O)C1 | 144 to 146 °C
Cc1nc(-c2ccccc2)sc1CCl | 84 to 86 °C
CC(=O)N1CCC(C)(C(=O)O)C1 (configuration not stated) | 120 to 122 °C
COC(=O)C1CSCCC1=O (configuration not stated) | 67 to 69 °C
N#CCc1cccnc1Cl | 80 to 82 °C
O=C(CCl)NCC1(c2ccccc2)CCCC1 | 74 to 76 °C
O=C(O)c1nc(Cl)cnc1Br | 99 to 101 °C
OCc1nccc(Cl)c1Cl | 59 to 61 °C
CCOc1ccc2c(c1)C=C(C(=O)O)CO2 | 186 to 188 °C
O=C(c1[nH]nc2ccccc12)N1CCNCC1 | 179 to 181 °C
O=c1cc(CCl)nc2ccccn12 | 173 to 175 °C
Nc1ccc2c(c1)C(=O)CCC2 | 126 to 128 °C
CN1CCN(C(=O)C2CCCNC2)CC1 (configuration not stated) | 85 to 87 °C
Cc1cccc(C#N)n1 | 70 to 72 °C
O=C(O)c1sc2cc(Br)ccc2c1Cl | 286 to 288 °C
Cc1ccc2[nH]c(=O)n3nc(C4CC4)nc3c2c1 | 260 to 262 °C

Compound | melting point
Cc1cc2cc(C=O)oc2cc1C | 69 to 71 °C
NCCc1c[nH]c2cc(Cl)ccc12 | 104 to 106 °C
CC(=O)NC1(c2noc(CCC(=O)O)n2)CCCCCC1 | 149 to 151 °C
NNC(=S)NCC(N)=O | 153 to 155 °C
COC(=O)c1c[nH]c(=O)c(C#N)c1 | 264 to 266 °C
O=C(O)C1CCCN(C(=O)c2c[nH]c3ccccc23)C1 (configuration not stated) | 231 to 233 °C
Nc1ccc(NC(=O)c2ccoc2)cc1C(F)(F)F | 121 to 123 °C
O=C1CCCc2nc(-c3ccccc3F)sc21 | 153 to 155 °C
Nc1cc(F)ccc1NC(=O)c1ccccn1 | 101 to 103 °C
Nc1nc(-c2ccc(N3CCCC3=O)cc2)cs1 | 283 to 285 °C
Cc1nn(C)c(C)c1CC(=O)N1CCC(C(=O)O)CC1 | 167 to 169 °C
O=C1CCN(C(=O)C2CC2)CC1 | 72 to 74 °C
Nc1cc(Br)ccc1O | 127 to 129 °C
Nn1c(S)nnc1-c1ccc(Cl)cc1Cl | 90 to 92 °C
N#CC=C(Cl)c1cccc(OC(F)F)c1 | 45 to 47 °C
CCCCNc1nc2ccc(C)cc2s1 | 70 to 72 °C
O=C(CC1CCCCC1)NCCC1CNc2ccccc21 (configuration not stated) | 124 to 126 °C
COC(=O)CNc1ccc(Br)cn1 | 105 to 107 °C
Cc1ccc(C)n1-c1cn[nH]c1 | 155 to 157 °C
COc1ccc(-c2cc(C(=O)O)c3ccccc3n2)cc1OC | 234 to 236 °C
ClCc1nn(-c2ccccc2)c2c1CCC2 | 83 to 85 °C
